± gives the standard deviation of the averaged measurements.
Compound: Cc1ccc(-c2cc(C(F)(F)F)nn2-c2ccc(S(N)(=O)=O)cc2)cc1 [CELECOXIB]
Test: surviving fraction relative to DMSO-only wells; higher = less growth inhibition
Details: 0.5 nM; exposure time: 5 days
Summary of the method: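 Inhibitors were tested at 0.5, 1, 5, 10, 50, 100, 500 and 1000 nM, applied continuously for five days beginning 24 hours after log-phase tumour cells were seeded at 250–500 per well in 384-well plates. CellTiter-Glo luminescence served as the viability measure, expressed as surviving fraction against the median of DMSO-only wells. Each line, screened three times, was kept only with replicate Pearson r >0.7 and median Z' >0.3.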

| Test System | surviving fraction |
| --- | --- |
| A549 LUNG | 1.04 ± 0.039 |
| ASKA SYNOVIAL | 1.16 ± 0.098 |
| BT20 BREAST | 1.14 ± 0.085 |
| BT549 BREAST | 1.02 ± 0.08 |
| CADOES1 SOFT TISSUE | 0.792 ± 0.11 |
| CAL51 BREAST | 1.03 ± 0.023 |
| CAL72 BONE | 1.03 ± 0.1 |
| CAL120 BREAST | 0.962 ± 0.045 |
| CASKI CERVIX | 0.944 ± 0.024 |
| CCK81 LARGE INTESTINE | 0.841 ± 0.1 |
| CHLA90 AUTONOMIC GANGLIA | 1.01 ± 0.048 |
| CME SYNOVIAL | 1.4 ± 0.11 |
| COLO320DM LARGE INTESTINE | 1.12 ± 0.18 |
| DU4475 BREAST | 0.894 ± 0.08 |
| G292 BONE | 1.03 ± 0.028 |
| H23 LUNG | 1.01 ± 0.018 |
| HCC38 BREAST | 1.17 ± 0.23 |
| HCC78 LUNG | 0.815 ± 0.2 |
| HCC202 BREAST | 1.15 ± 0.041 |
| HCC1806 BREAST | 1.08 ± 0.049 |
| HMLE3 BREAST | 1.08 ± 0.07 |
| HMT3552 BREAST | 1.07 ± 0.057 |
| HOS BONE | 1 ± 0.013 |
| HOSMNG BONE | 0.941 ± 0.06 |
| HS57T BREAST | 1.028 ± 0.0046 |
| HSSYII SYNOVIAL | 1.04 ± 0.019 |
| HT1080 SOFT TISSUE | 1.039 ± 0.0011 |
| HU09 BONE | 1 ± 0.092 |
| HUO3N1 BONE | 1.03 ± 0.04 |

Same assay, conditions: 1 nM; exposure time: 5 days

| Test System | surviving fraction |
| --- | --- |
| 22RV1 PROSTATE | 1.06 ± 0.082 |
| 93VU HEADNECK | 1.11 ± 0.076 |
| 143B BONE | 1.04 ± 0.03 |
| A549 LUNG | 1.05 ± 0.025 |
| ASKA SYNOVIAL | 1.15 ± 0.074 |
| BT20 BREAST | 1.1 ± 0.035 |
| BT549 BREAST | 1.06 ± 0.088 |
| CADOES1 SOFT TISSUE | 0.925 ± 0.091 |
| CAL51 BREAST | 1.04 ± 0.056 |
| CAL72 BONE | 1.04 ± 0.14 |
| CAL120 BREAST | 0.979 ± 0.039 |
| CASKI CERVIX | 0.881 ± 0.056 |
| CCK81 LARGE INTESTINE | 0.867 ± 0.052 |
| CHLA90 AUTONOMIC GANGLIA | 0.999 ± 0.058 |
| CME SYNOVIAL | 1.45 ± 0.18 |
| COLO320DM LARGE INTESTINE | 1.12 ± 0.17 |

| Test System | surviving fraction |
| --- | --- |
| DU4475 BREAST | 0.836 ± 0.06 |
| G292 BONE | 1.02 ± 0.05 |
| H23 LUNG | 1.04 ± 0.062 |
| HCC38 BREAST | 1.4 ± 0.23 |
| HCC78 LUNG | 0.894 ± 0.038 |
| HCC202 BREAST | 1.14 ± 0.04 |
| HCC1806 BREAST | 1.01 ± 0.16 |
| HMLE3 BREAST | 1.06 ± 0.032 |
| HMT3552 BREAST | 1.07 ± 0.07 |
| HOS BONE | 1.028 ± 0.0093 |
| HOSMNG BONE | 0.968 ± 0.093 |
| HS57T BREAST | 1.04 ± 0.052 |
| HSSYII SYNOVIAL | 1.01 ± 0.014 |
| HT1080 SOFT TISSUE | 1.06 ± 0.011 |
| HU09 BONE | 0.961 ± 0.061 |
| HUO3N1 BONE | 0.998 ± 0.039 |

Same assay, conditions: 5 nM; exposure time: 5 days

| Test System | surviving fraction |
| --- | --- |
| 22RV1 PROSTATE | 0.996 ± 0.088 |
| 93VU HEADNECK | 1.1 ± 0.043 |
| 143B BONE | 1.07 ± 0.057 |
| A549 LUNG | 1.05 ± 0.045 |
| ASKA SYNOVIAL | 1.2 ± 0.05 |
| BT20 BREAST | 1.08 ± 0.059 |
| BT549 BREAST | 1.07 ± 0.16 |
| CADOES1 SOFT TISSUE | 0.807 ± 0.17 |
| CAL51 BREAST | 0.991 ± 0.026 |
| CAL72 BONE | 1.05 ± 0.11 |
| CAL120 BREAST | 0.964 ± 0.067 |
| CASKI CERVIX | 0.952 ± 0.029 |
| CCK81 LARGE INTESTINE | 0.744 ± 0.14 |
| CHLA90 AUTONOMIC GANGLIA | 0.99 ± 0.054 |
| CME SYNOVIAL | 1.37 ± 0.076 |
| COLO320DM LARGE INTESTINE | 1.15 ± 0.075 |

| Test System | surviving fraction |
| --- | --- |
| DU4475 BREAST | 0.943 ± 0.095 |
| G292 BONE | 1.03 ± 0.039 |
| H23 LUNG | 1.04 ± 0.021 |
| HCC38 BREAST | 1.33 ± 0.23 |
| HCC78 LUNG | 0.89 ± 0.28 |
| HCC202 BREAST | 1.2 ± 0.33 |
| HCC1806 BREAST | 1.11 ± 0.084 |
| HMLE3 BREAST | 1.08 ± 0.1 |
| HMT3552 BREAST | 1.09 ± 0.026 |
| HOS BONE | 1.02 ± 0.012 |
| HOSMNG BONE | 0.923 ± 0.047 |
| HS57T BREAST | 1.06 ± 0.022 |
| HSSYII SYNOVIAL | 0.979 ± 0.07 |
| HT1080 SOFT TISSUE | 1.038 ± 0.0067 |
| HU09 BONE | 1.08 ± 0.027 |
| HUO3N1 BONE | 1.06 ± 0.057 |

Same assay, conditions: 10 nM; exposure time: 5 days

| Test System | surviving fraction |
| --- | --- |
| 22RV1 PROSTATE | 1.03 ± 0.025 |
| 93VU HEADNECK | 1.08 ± 0.16 |
| 143B BONE | 1.05 ± 0.0021 |
| A549 LUNG | 1.05 ± 0.029 |
| ASKA SYNOVIAL | 1.19 ± 0.048 |
| BT20 BREAST | 1.19 ± 0.077 |
| BT549 BREAST | 1.24 ± 0.062 |
| CADOES1 SOFT TISSUE | 0.984 ± 0.052 |
| CAL51 BREAST | 0.998 ± 0.08 |
| CAL72 BONE | 1.04 ± 0.046 |
| CAL120 BREAST | 0.99 ± 0.049 |
| CASKI CERVIX | 0.93 ± 0.055 |
| CCK81 LARGE INTESTINE | 0.819 ± 0.059 |
| CHLA90 AUTONOMIC GANGLIA | 1.03 ± 0.12 |
| CME SYNOVIAL | 1.34 ± 0.079 |
| COLO320DM LARGE INTESTINE | 1.12 ± 0.15 |

| Test System | surviving fraction |
| --- | --- |
| DU4475 BREAST | 0.937 ± 0.014 |
| G292 BONE | 1 ± 0.057 |
| H23 LUNG | 1.03 ± 0.05 |
| HCC38 BREAST | 1.36 ± 0.25 |
| HCC78 LUNG | 1.05 ± 0.18 |
| HCC202 BREAST | 1.04 ± 0.09 |
| HCC1806 BREAST | 1.1 ± 0.18 |
| HMLE3 BREAST | 1.06 ± 0.025 |
| HMT3552 BREAST | 1.11 ± 0.038 |
| HOS BONE | 1.018 ± 0.0023 |
| HOSMNG BONE | 0.879 ± 0.11 |
| HS57T BREAST | 1.09 ± 0.08 |
| HSSYII SYNOVIAL | 1.08 ± 0.028 |
| HT1080 SOFT TISSUE | 1.05 ± 0.014 |
| HU09 BONE | 1.03 ± 0.13 |
| HUO3N1 BONE | 1.08 ± 0.061 |

Same assay, conditions: 50 nM; exposure time: 5 days

| Test System | surviving fraction |
| --- | --- |
| 22RV1 PROSTATE | 0.956 ± 0.17 |

Source: the supplement of paper PMC6045584
